The OPERA property sets (Mansouri et al. 2018)

SMILES | ready biodegradability | boiling point [°C] | melting point [°C] | log10 Henry constant (atm·m³/mol) | log10 vapour pressure (mmHg) | log10 Koa | log10 Koc (L/kg)
CC(Br)(CBr)COc1c(Br)cc(Br)cc1Br (centres undefined) | not readily biodegradable |  |  |  |  |  | 
CCCC/C=C/CCCCC |  | 192 | -83.8 |  |  |  | 
C/C=C\CC(C)(C)C |  | 107 |  |  |  |  | 
CC(C)OC(=O)C=CC(=O)OC(C)C |  | 280 | 2.1 |  |  |  | 
CCOP(=S)(OCC)SC1OCCOC1SP(=S)(OCC)OCC (centres undefined) |  |  | -20 |  |  |  | 
CCCCC(=O)CCC |  | 163 |  |  |  |  | 
CCOC(=O)c1ccccc1C(=O)c1ccccc1 |  |  | 59.5 |  |  |  | 
COc1ccc(Nc2ccc(N)cc2)cc1 |  |  | 102 |  |  |  | 
Cc1cc(C)cc([N+](=O)[O-])c1 |  | 274 | 75 |  |  |  | 
CC(C)O | readily biodegradable | 82.3 | -89.5 | -5.09 | 1.66 |  | 
COc1ccc(O)c([N+](=O)[O-])c1 |  |  | 79 | -5.73 |  |  | 
CCOc1ccc(N)cc1 | not readily biodegradable | 254 | 2.4 |  | -1.98 |  | 
C=CCCBr |  | 98.5 |  |  |  |  | 
CCNc1cccc2ccccc12 | not readily biodegradable | 305 |  |  |  |  | 
c1ccc2c(c1)cnc1ccccc12 |  | 349 | 107 |  | -4.68 |  | 
N#CC1=C(C#N)C(=O)C(Cl)=C(Cl)C1=O |  |  | 214 |  |  |  | 
O=S(=O)(O)NC1CCCCC1 |  |  | 170 |  |  |  | 
CCOC(=O)C=Cc1ccccc1 |  | 271 | 7 |  | -2.49 |  | 
CNc1ccc(N)c2c1C(=O)c1ccccc1C2=O |  |  | 193 |  |  |  | 
CCOC(=O)CC[C@H](N)C(=O)OCC.Cl |  |  | 109 |  |  |  | 
CCC(=O)O[C@H]([C@H](C)[C@H]1O[C@@]2(CC[C@@](C)([C@H]3CC[C@@](C)(C4O[C@@H]([C@H]5O[C@@](O)(CO)[C@H](C)C[C@@H]5C)C[C@@H]4C)O3)O2)C[C@H](O)[C@H]1C)[C@@H](C)C(=O)O (some centres undefined) |  |  | 152 |  |  |  | 

SMILES | ready biodegradability | boiling point [°C] | melting point [°C] | log10 Henry constant (atm·m³/mol) | log10 vapour pressure (mmHg) | log10 Koa | log10 Koc (L/kg)
CCSc1cccc(C)c1 |  | 219 |  |  |  |  | 
C1CC1 |  | -32.8 | -127 |  | 3.73 |  | 
CC(O)C(C)O (racemic) |  | 182 | 16.3 |  | -0.677 |  | 
CC1(C)[C@H](C(=O)O[C@H](C#N)c2cccc(Oc3ccccc3)c2)[C@@H]1C=C(Br)Br |  |  | 100 |  | -7.82 |  | 
c1coc(CNc2[nH]cnc3ncnc2-3)c1 |  |  | 266 |  |  |  | 
O=C(NCO)NCO |  |  | 126 |  |  |  | 
O=S(=O)(O)c1ccc(Cl)cc1 | readily biodegradable |  | 67 |  |  |  | 
CCCc1nccnc1C |  | 189 |  |  |  |  | 
COc1ccccc1N1CCN(CCCNc2cc(=O)n(C)c(=O)n2C)CC1 |  |  | 157 |  |  |  | 
COC(=O)Nc1nc2cc(C(=O)c3ccccc3)ccc2[nH]1 |  |  | 288 |  |  |  | 
O=CC12CC=CCC1C1CC=CCC1O2 (centres undefined) |  | 307 | -80 |  |  |  | 
CNC(=O)O/N=C(\C)C(C)S(C)(=O)=O (centres undefined) |  |  | 87 |  | -5.7 |  | 
O=C(c1ccc(O)cc1)c1ccc(O)cc1 |  |  | 210 |  |  |  | 
NC(=O)Cc1ccccc1 |  |  | 157 |  |  |  | 
c1ccc(-c2cccnc2)cc1 |  | 272 | 164 |  |  |  | 
CCc1ccc(CC)cc1 | not readily biodegradable | 184 | -42.8 |  | 0.0253 |  | 
ClC(Cl)=C(c1ccc(Cl)cc1)c1ccc(Cl)cc1 |  | 336 | 89 | -4.38 | -5.22 | 9.68 | 4.82
CCCCOC(=O)c1ccccc1O |  | 271 | -5.9 |  |  |  | 
C=C(C)C(CC)CC |  | 110 | -113 |  |  |  | 
CCSc1ccc(C)cc1 |  | 220 |  |  |  |  | 
CCCCCCCCCc1ccc(OP(=O)(Oc2ccccc2)Oc2ccccc2)cc1 |  | 471 |  | -7.85 |  |  | 4.06

SMILES | ready biodegradability | boiling point [°C] | melting point [°C] | log10 Henry constant (atm·m³/mol) | log10 vapour pressure (mmHg) | log10 Koa | log10 Koc (L/kg)
C[C@H](O)C(F)(F)F |  | 75.5 |  | -4.66 | 1.78 |  | 
CC(=O)O[C@@]12CO[C@@H]1C[C@H](O)[C@@]1(C)C(=O)[C@H](O)C3=C(C)[C@@H](OC(=O)[C@H](O)[C@@H](NC(=O)OC(C)(C)C)c4ccccc4)C[C@@](O)([C@@H](OC(=O)c4ccccc4)[C@H]21)C3(C)C |  |  | 232 |  |  |  | 
Nc1ccc2ccccc2c1 | readily biodegradable | 300 | 113 | -7.09 | -3.59 |  | 
O=C(N/N=C/C=C/c1ccc([N+](=O)[O-])o1)c1ccc([N+](=O)[O-])s1 |  |  | 236 |  |  |  | 
O=C(O)CCc1ccco1 |  | 229 | 58 |  |  |  | 
COc1ccc(C(Cl)=C(c2ccc(OC)cc2)c2ccc(OC)cc2)cc1 |  |  | 115 |  |  |  | 
CSc1ccc2c(c1)N(CCC1CCCCN1C)c1ccccc1S2 (centres undefined) |  |  | 73 |  |  |  | 
O=C1/C(=C/c2ccc(O)c(O)c2)Oc2cc(O)ccc21 |  |  | 303 |  |  |  | 
Cc1ccccc1NC=O |  | 288 | 62 |  |  |  | 
C=CC(O)CC (centres undefined) |  | 115 |  |  |  |  | 
CC1(C)O[C@@H]2C[C@H]3[C@@H]4C[C@H](F)C5=CC(=O)C=C[C@]5(C)[C@@]4(F)[C@@H](O)C[C@]3(C)[C@]2(C(=O)CO)O1 |  |  | 266 |  |  |  | 
CC1CCCC(C)N1C(=O)COC(=O)c1ccccc1 (centres undefined) |  |  | 118 |  |  |  | 
Cc1ccc2nc(C)cc(C)c2c1 |  | 280 | 68 |  |  |  | 
Nc1nc(N)nc(-c2ccccc2)n1 | not readily biodegradable |  | 226 |  |  |  | 
CC=CCCCCCCCCO |  | 248 | 6 |  |  |  | 
ClCc1ccc2ccccc2c1 |  |  | 48.5 |  |  |  | 
COc1ccccc1OC(=O)c1ccccc1 |  |  | 57.5 |  |  |  | 
O=[N+]([O-])c1ccc(Cl)cc1C(F)(F)F | not readily biodegradable |  |  |  |  |  | 
CC1CCC(=O)N1C (centres undefined) |  | 217 |  |  |  |  | 
c1ccc(Oc2ccccc2)cc1 | readily biodegradable | 258 | 26.8 |  | -1.65 |  | 3.29
